According to US20250368646A1, “TRICYCLIC FUSED WRN INHIBITORS” (Nimbus Wadjet, Inc., priority 2024, published 2025):
pEC50, pIC50: −log10 of the molar value.

Columns and labels:
[1] = biological target: T1, human Werner helicase (WRN-BV08, amino acids 517-1235 with L1074F point mutation) (Homo sapiens, UniProt Q14191, L1074F); assay: ADP-Glo WRN helicase ATPase inhibition assay; assay type: biochemical; details: 0.15 nM WRN, 5 μM ATP, 0.1 nM DNA duplex; 15 minutes preincubation, 60 minutes at 25° C.; read-out: ADP-Glo_hWRN_IC50
T1 construct: [pFastBac1-WRN-(517-1235 L1074F)-TEV-8His]; 8xHis (C, cleaved yes); TEV cleavage site (ENLYFQG) (C); made in house; host or cells: Sf9 insect cells (baculovirus, pFastBac)
Description: Bovine skin gelatin (BSG), dimethyl sulfoxide (DMSO), Pluronic F-127 and tris(2-carboxyethyl)phosphine hydrochloride solution (TCEP) were purchased from Sigma-Aldrich (St. Louis, MO) at the highest level of purity possible. Bicine buffer solution was purchased from Alfa Aesar (Tewksbury, MA) and compound NSC-617145 was purchased from Tocris (Minneapolis, MN). DNA duplex was synthesized at BGI (Shenzhen, China) and was composed of strand 1 with the sequence 5′-[…]-3′ (SEQ ID NO.: 1) and strand 2 with the sequence 5′-[…]-3′ (SEQ ID NO.: 2). DNA strands were annealed by heating to 95° C. for 5 minutes followed by slow cooling to room temperature. Compounds in 100% DMSO (0.1 μl) were spotted into a 384-well white polystyrene Optiplate-384 (Perkin Elmer; Waltham, MA) assay plate using a LabCyte Echo 550 (Agilent; Santa Clara, CA). DMSO (0.1 μl) was added to columns 12, rows A-H and column 24, rows I-P for the maximum signal control. Compound NSC-617145 (0.1 μl) was added to columns 12, rows I-P and 24, rows A-H for the minimum signal control (100% inhibition). Compounds/DMSO were preincubated for 15 minutes at 25° C. with 5 μl 2×WRN (BV08), prepared as described below, in assay buffer containing 20 mM Bicine (pH=7.5), 1 mM MgCl2, 10 mM KCl, 0.1% Pluronic F-127, 0.005% BSG, 1 mM TCEP. The reaction was initiated by the addition of 5 μl 2× substrate mixture in assay buffer and incubated for 60 minutes at 25° C. The final concentrations of the assay components were 0.15 nM WRN, 5 μM ATP, and 0.1 nM DNA duplex. The final DMSO concentration was 1% and the reference compound concentration (NSC-617145) used for the minimal signal control was 20 μM. The reaction was stopped by the addition of the ADP-Glo Kit components (Promega; Madison, WI) as directed and the relative luminescence units (RLU) were read on an Envision 2104 (Perkin Elmer; Waltham, MA). % inhibition calculation:
Where RLU=relative luminescence units, sample=signal in sample well, and MIN and MAX are the respective minimum and maximum signal controls.
Four-Parameter IC50 Fit Equation:
Where top and bottom are normally allowed to float but may be fixed at 100 or 0 respectively in a 3-parameter fit. Y is the % inhibition and X is the compound concentration.
Molecular Biology and virus production. The DNA encoding human Werner helicase (Uniprot Q14191, amino acids 517-1235 with L1074F point mutation) was generated with codon-optimization for E. coli expression and subcloned into the pFastBac vector with a TEV cleavable 8×His tag (SEQ ID NO: 5) (WRN-BV08). The baculovirus from the expression plasmid WRN-BV08 was generated from transfection and amplification following the manufacturer's instructions.
Sf9 cells grown in SF900II media were infected with 1:200 WRN-BV08 P2 virus and incubated for protein expression for 72 h at 27° C. The WRN protein was purified using the following protocol. The cell pellets were thawed and resuspended in buffer A (50 mM Tris, pH 7.5, 500 mM NaCl, 1 mM TCEP, 10% Glycerol) supplemented with 0.5% CHAPS, 1 mM PMSF, […] Leupeptin, 1 μg/ml Pepstatin, and the Pierce Universal Nuclease and cocktail tablet. Cleared lysates were loaded onto a Ni Sepharose™ excel column and washed with buffer A and bound protein was eluted with buffer A supplemented with 300 mM imidazole. The eluted protein was dialyzed against buffer A and digested by His-tagged TEV (1:5 ratio) overnight at 4° C. ZnCl2 was added into the sample at final 15 μM before loading onto a second Ni Sepharose™ excel column. Untagged WRN protein was eluted from the column with buffer A supplemented with 20 mM imidazole, dialyzed overnight into buffer B (50 mM Tris, pH 7.5, 1 mM TCEP, 10% Glycerol) supplemented with 150 mM NaCl and loaded onto a Heparin column. Proteins were eluted with a step gradient of buffer B supplemented with 150 mM, 200 mM, 300 mM and 500 mM NaCl. […]

[2] = test system: p21 induction in HCT 116 cells; assay: p21 induction in cells (in-cell western, p21/GAPDH ratio); assay type: cell-based; details: Homo sapiens; HCT 116 colon carcinoma cell line, 24 h compound incubation; percent activation vs internal reference WRN inhibitor; read-out: P21_EC50
Procedure: The colon carcinoma cell line HCT 116 was obtained from ATCC and cultured in growth medium consisting of Mccoy's 5A Medium (Gibco 16600108) supplemented with […] (Transgene FS201-02) and 100 units/mL penicillin-streptomycin (Gibco 15140122) and maintained at 37° C. under […]. On the day of seeding, 2,000 cells in 30 μL of culture media were plated per well to Poly-D-Lysine 384 Well Black Clear Plates (Biocoat 356663) and incubated overnight at 37° C. under 5% CO2. The following day, compounds were serially diluted in DMSO for a total of 11 test concentrations. The typical starting concentration of cpds was 10 μM with 2-fold dilutions. Next, 150 nL of diluted compound was added in duplicate to the assay plate, using an Echo 655 (Labcyte). The plate was centrifuged at 500 RPM for 1 min and then incubated at 37° C. under 5% CO2 for 24 h. After 24 h, medium was removed, and cells were fixed by adding 40 µL of 4% paraformaldehyde solution to each well and incubated for 20 min at room temperature. The plate was then washed 4 times with 100 μL per well of wash buffer (PBS with 0.1% Tween-20) using a microplate washer. Next, 30 μL of ice-cold methanol was added to each well and the plate was incubated at −20° C. for 10 min. The plate was washed 4 times with 100 μL per well of wash buffer by a microplate washer, then 30 μL per well of blocking buffer (Intercept PBS blocking buffer (LI-COR 927-70001) with 0.05% Tween-20) was added and the plate was incubated at room temperature with shaking for 2 h. Next, to each test well, 20 μL of primary antibody solution (p21 Waf1/CIP (12D1) Rabbit mAb (Cell Signaling Technologies 2947) diluted 1:1000 and GAPDH (D4C6R) Mouse mAb (Cell Signaling Technologies 97166) diluted 1:2000 in blocking buffer) was added and the plate was placed at 4° C., overnight. The following day, the plate was washed 5 times with 100 μL per well of wash buffer using a microplate washer for 5 min. 20 μL per well of secondary antibody (IRDye 680CW Goat anti-Mouse IgG (H+L) (LI-COR 926-68070) diluted 1: 2000 in Blocking Buffer and IRDye 800CW Goat anti-Rabbit IgG (H+L) (LI-COR 926-32211) diluted 1: 2000 in Blocking Buffer) was then added and the plate was stored for 2 h in the dark at room temperature with shaking. The plate was then washed 4 times with 100 μL per well of wash buffer again using a microplate washer. Finally, the p21 signal and the GAPDH signal were quantified using a LI-COR Odyssey CLx Imager machine reading at 800 nm and 700 nm, respectively. Each plate contained DMSO control (low control) and an internal reference WRN inhibitor (high control) respectively. For quantitation, the 800 nm/700 nm ratio was calculated for each well to give fold p21 induction and then percent activation for each compound well was calculated as follows (100×(ratio cpd well-ratio low control)/(ratio high control−ratio low control)). EC50 values for each compound were generated after non-linear regression curve fitting using commercially available software.

T1 sequence (Q14191 with tags, fused parts or gaps L1074F): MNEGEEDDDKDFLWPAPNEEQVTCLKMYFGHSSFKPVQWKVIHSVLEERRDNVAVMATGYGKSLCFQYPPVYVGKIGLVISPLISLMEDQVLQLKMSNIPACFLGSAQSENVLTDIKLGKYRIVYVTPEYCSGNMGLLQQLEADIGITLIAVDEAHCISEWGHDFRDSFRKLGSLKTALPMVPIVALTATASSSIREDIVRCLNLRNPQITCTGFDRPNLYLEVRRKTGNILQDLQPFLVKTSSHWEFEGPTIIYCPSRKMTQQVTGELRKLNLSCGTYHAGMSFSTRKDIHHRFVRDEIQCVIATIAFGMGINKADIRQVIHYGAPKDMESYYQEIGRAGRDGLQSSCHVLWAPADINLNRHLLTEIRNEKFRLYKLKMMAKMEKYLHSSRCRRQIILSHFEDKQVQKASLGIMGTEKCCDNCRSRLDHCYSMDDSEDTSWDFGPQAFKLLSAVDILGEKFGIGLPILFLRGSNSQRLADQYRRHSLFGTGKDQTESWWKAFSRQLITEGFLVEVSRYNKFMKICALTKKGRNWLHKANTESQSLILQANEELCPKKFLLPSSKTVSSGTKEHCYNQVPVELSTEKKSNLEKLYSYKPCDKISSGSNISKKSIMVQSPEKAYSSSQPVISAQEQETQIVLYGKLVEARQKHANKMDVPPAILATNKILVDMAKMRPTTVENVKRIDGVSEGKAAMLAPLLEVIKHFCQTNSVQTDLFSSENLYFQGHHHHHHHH

| pIC50 [1] | pEC50 [2] | Structure (SMILES) |
| --- | --- | --- |
| < 6.30 | < 5.30 | Cc1ncnc(C(=O)N2CCN(c3c4n(c5nn(C6=CCOCC6)nc5c3=O)[C@H](C(=O)Nc3ccc(C(F)(F)F)cc3Cl)C[C@H]4C)[C@H]3CC[C@@H]32)c1O (single isomer, unassigned) [Compound I-25] |
| 6.30 to 7.00 | 5.30 to 5.70 | COc1cc(-n2nc3c(=O)c(N4CCN(C(=O)c5ncnc(C)c5O)[C@H]5CC[C@@H]54)c4n(c3n2)[C@@H](C(=O)Nc2ccc(C(F)(F)F)cc2F)C[C@H]4C)ccn1 (single isomer, unassigned) [Compound I-10] |
| ≥ 8.30 | ≥ 6.30 | Cc1ncnc(C(=O)N2CCN(c3c4n(c5nn(C6CC6)nc5c3=O)[C@H](C(=O)Nc3ccc(C(F)(F)F)cc3Cl)C[C@H]4C)[C@H]3CC[C@@H]32)c1O (relative stereo) [Compound I-27, (6R*,8R**)-N-[2-chloro-4-(trifluoromethyl)phenyl]-2-cyclopropyl-5-[(1S,6S)-5-(5-hydroxy-6-methylpyrimidine-4-carbonyl)-2,5-diazabicyclo[4.2.0]octan-2-yl]-6-methyl-4-oxo-2H,4H,6H,7H,8H-[1,2,3]triazolo[4,5-e]indolizine-8-carboxamide] |
| 7.00 to 7.30 | 5.70 to 6.30 | Cc1nc2c(=O)c(N3CCN(C(=O)c4ncnc(C)c4O)[C@H]4CC[C@@H]43)c3n(c2nc1C)[C@@H](C(=O)Nc1ccc(C(F)(F)F)cc1Cl)C[C@H]3C (single isomer, unassigned) [Compound I-19] |
| ≥ 8.30 | ≥ 6.30 | Cc1ncnc(C(=O)N2CCN(c3c4n(c5nn(C6CC6)nc5c3=O)[C@@H](C(=O)Nc3ccc(C(F)(F)F)cc3Cl)C[C@H]4C)[C@H]3CC[C@@H]32)c1O (single isomer, unassigned) [Compound I-21] |
| 6.30 to 7.00 | 5.70 to 6.30 | COc1cc(-n2nc3c(=O)c(N4CCN(C(=O)c5ncnc(C)c5O)[C@H]5CC[C@@H]54)c4n(c3n2)[C@H](C(=O)Nc2ccc(C(F)(F)F)cc2Cl)C[C@@H]4C)ccn1 (single isomer, unassigned) [Compound I-9] |
| < 6.30 | < 5.30 | Cc1nc2c(=O)c(N3CCN(C(=O)c4ncnc(C)c4O)[C@H]4CC[C@@H]43)c3n(c2nc1C)[C@H](C(=O)Nc1ccc(C(F)(F)F)cc1Cl)C[C@H]3C (single isomer, unassigned) [Compound I-20] |
| 6.30 to 7.00 | 5.70 to 6.30 | COc1cc(-n2nc3c(=O)c(N4CCN(C(=O)c5ncnc(C)c5O)[C@H]5CC[C@@H]54)c4n(c3n2)[C@H](C(=O)Nc2ccc(C(F)(F)F)cc2F)C[C@H]4C)ccn1 (single isomer, unassigned) [Compound I-16] |
| ≥ 8.30 | ≥ 6.30 | COc1cc(-n2nc3c(=O)c(N4CCN(C(=O)c5ncnc(C)c5O)[C@H]5CC[C@@H]54)c4n(c3n2)[C@@H](C(=O)Nc2ccc(C(F)(F)F)cc2Cl)C[C@H]4C)ccn1 (single isomer, unassigned) [Compound I-5] |
| ≥ 8.30 | ≥ 6.30 | Cc1nc2c(=O)c(N3CCN(C(=O)c4ncnc(C)c4O)[C@H]4CC[C@@H]43)c3n(c2nc1C)[C@@H](C(=O)Nc1ccc(C(F)(F)F)cc1Cl)C[C@@H]3C (single isomer, unassigned) [Compound I-17] |
| 6.30 to 7.00 | < 5.30 | COc1cc(-n2nc3c(=O)c(N4CCN(C(=O)c5ncnc(C)c5O)[C@H]5CC[C@@H]54)c4n(c3n2)[C@H](C(=O)NC23CC(C5CC5)(C2)C3)C[C@@H]4C)ccn1 (single isomer, unassigned) [Compound I-4] |
| 7.30 to 8.30 | ≥ 6.30 | COc1cc(-n2nc3c(=O)c(N4CCN(C(=O)c5ncnc(C)c5O)[C@H]5CC[C@@H]54)c4n(c3n2)[C@@H](C(=O)Nc2ccc(C(F)(F)F)cc2Cl)C[C@@H]4C)ccn1 (single isomer, unassigned) [Compound I-14] |
| 7.30 to 8.30 | ≥ 6.30 | COc1cc(-n2nc3c(=O)c(N4CCN(C(=O)c5ncnc(C)c5O)[C@H]5CC[C@@H]54)c4n(c3n2)[C@@H](C(=O)NC23CC(C5CC5)(C2)C3)C[C@@H]4C)ccn1 (single isomer, unassigned) [Compound I-1] |
| – | ≥ 6.30 | Cc1nc2c(=O)c(N3CCN(C(=O)c4ncnc(C)c4O)[C@H]4CC[C@@H]43)c3n(c2nc1C)[C@@H](C(=O)Nc1ccc2c(c1Cl)OC(F)(F)O2)C[C@H]3C [Compound I-26, (7R,9R)—N-(4-chloro-2,2-difluoro-2H-1,3-benzodioxol-5-yl)-6-[(1S,6S)-5-(5-hydroxy-6-methylpyrimidine-4-carbonyl)-2,5-diazabicyclo[4.2.0]octan-2-yl]-2,3,7-trimethyl-5-oxo-5H,7H,8H,9H-pyrazino[2,3-e]indolizine-9-carboxamide] |
| ≥ 8.30 | – | COc1cc(-n2nc3c(=O)c(N4CCN(C(=O)c5ncnc(C)c5O)[C@H]5CC[C@@H]54)c4n(c3n2)[C@H](C(=O)Nc2ccc(C(F)(F)F)cc2Cl)C[C@H]4C)ccn1 (single isomer, unassigned) [Compound I-13] |
